Results on 15 compounds are retold here after patent US11229636B2, “Substituted tetrahydroquinolinone compounds as ROR gamma modulators” (Aurigene Discovery Technologies Limited, priority 2015, dated 2022).

One experiment has as its target RORγ LBD (Homo sapiens (Human), UniProt P51449). Kind of experiment: ROR gamma radio-ligand binding assay (3H 25-Hydroxycholesterol competitive displacement, dextran charcoal method). Particulars: for RORγ ligand binding assay: % inhibition @ 10 μM / inhibition at 10 µM: 10 μM compound; for IC50: in range. The procedure:
Gene corresponding to the ligand binding domain of RORγ (247-497 amino acids) was sub-cloned into pGEX4T1 vector. Transformants of E. coli BL21 (DE3) containing pGEX4T1-RORγ (247-497) were grown to an OD of 0.8 at 37° C. and induced with 0.5 mM isopropyl-β-D-thiogalactopyranoside (IPTG) for 18 hours at 18° C. Cells were harvested and resuspended in 20 mM Tris-HCl (pH 8.5), 0.3 M NaCl, 10% Glycerol, 2 mM β-Me (β-Mercaptoethanol), 2 mM CHAPS, protease inhibitors, 0.6 mM PMSF and Lysozyme. Supernatant of lysate was passed through glutathione sepharose 4B affinity beads (GE health care) pre-equilibrated with 20 mM Tris-HCl (pH 8.5), 0.3 M NaCl, 10% Glycerol, 2 mM β-Me. RORγ was eluted using a gradient of reduced glutathione (3-20 mM). Fractions containing RORγ protein were pooled, concentrated and passed through Superdex 75 gel filtration (GE health care) column equilibrated with 20 mM Na-phosphate pH 8.0, 0.2 M NaCl, 10% glycerol. The peak fractions from gel filtration column were pooled and stored at −80° C. for Binding assay.
ROR gamma radioligand binding was performed using ^3H 25-Hydroxycholesterol in a competitive displacement assay using dextran charcoal method. Using 5 nM ^3H 25-Hydroxycholesterol with 300 ng RORγ LBD (in house expressed in E. coli) along with the compound were incubated in the binding buffer (50 mM HEPES, pH 7.5, 150 mM NaCl, 0.01% BSA and 5 mM MgCl2) for 30 min at room temperature. Then dextran-charcoal mixture (0.5% charcoal: 0.05% dextran) was used for separation and the supernatant was read on the Perkin Elmer Trilux Microbeta counter. Dose response curves were generated for 10 compound concentrations using GraphPad Prism software Version 5 (San Diego, Calif., USA) using non-linear regression curve fit for sigmoidal dose response (variable slope).

Experiment [1] concerns the target ROR gamma ligand binding domain (Homo sapiens (Human), UniProt P51449). The experiment in a line: ROR gamma luciferase reporter assay (GAL4-ROR gamma LBD, HEK293 cells). It counts as cell-based. Particulars: 48 hours treatment, read-out: RORγ luciferase Reporter assay: IC50 (nM) (in range). The procedure, abridged:
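HEK293 cells were co-transfected with a GAL4 DBD–RORγ LBD fusion (hRluc vector) and a 9xGAL4 UAS luc2P reporter, then treated with compounds for 48 h. Bright-Glo luminescence was used to derive potency.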

Chain of RORγ LBD (P51449 268-518): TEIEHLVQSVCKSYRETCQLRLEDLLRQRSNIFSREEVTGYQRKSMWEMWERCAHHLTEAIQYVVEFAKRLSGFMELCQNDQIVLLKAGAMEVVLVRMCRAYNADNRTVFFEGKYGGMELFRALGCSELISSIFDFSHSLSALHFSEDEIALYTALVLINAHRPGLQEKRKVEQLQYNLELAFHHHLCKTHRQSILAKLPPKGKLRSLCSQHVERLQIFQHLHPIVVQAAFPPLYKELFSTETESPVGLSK
Chain of ROR gamma ligand binding domain (P51449 269-508): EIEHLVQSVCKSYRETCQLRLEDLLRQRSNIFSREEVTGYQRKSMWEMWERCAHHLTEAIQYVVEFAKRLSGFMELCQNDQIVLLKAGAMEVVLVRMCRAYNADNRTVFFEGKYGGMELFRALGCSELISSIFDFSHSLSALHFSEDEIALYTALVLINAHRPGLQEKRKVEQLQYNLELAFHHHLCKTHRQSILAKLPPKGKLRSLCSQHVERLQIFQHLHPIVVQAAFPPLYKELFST

As a reminder, the inhibition is the share of the control response that was lost under treatment. High values mean a response far below the control, low ones a response near the control. One may read the IC50 as the midpoint of a concentration-inhibition curve. Consider `CCS(=O)(=O)c1ccc(CC(=O)Nc2cc(C)c3c(n2)CCC(C)(c2ccc(OC)nn2)C3=O)cc1` (single isomer, unassigned) [compound 109, 2-(4-(ethylsulfonyl)phenyl)-N-(6-(6-methoxypyridazin-3-yl)-4,6-dimethyl-5-oxo-5,6,7,8-tetrahydroquinolin-2-yl)acetamide], for which the inhibition at 1 µM at RORγ LBD (1 μM compound) worked out at 91%. At RORγ LBD, the “RORγ ligand binding assay: % inhibition @ 10 μM” value was 36%. The IC50 in experiment [1] was greater than 500 nM.

`CCS(=O)(=O)c1ccc(CC(=O)Nc2ccc3c(n2)CCC(C)(c2nccn4cccc24)C3=O)cc1` (stereo not shown) [Compound 15, 2-(4-(ethylsulfonyl)phenyl)-N-(6-methyl-5-oxo-6-(pyrrolo[1,2-a]pyrazin-1-yl)-5,6,7,8-tetrahydroquinolin-2-yl)acetamide] had an inhibition at 1 µM on RORγ LBD (1 μM compound) of 95%. On RORγ LBD, this compound returned an inhibition at 10 µM of 92% and an IC50 of less than 150 nM. The IC50 in experiment [1] is less than 100 nM.

For the compound `CCS(=O)(=O)c1ccc(CC(=O)Nc2cc(C)c3c(n2)CCC(C)(c2cc(C)nc(C)n2)C3=O)cc1` (stereo not shown) [Compound 28, N-(6-(2,6-dimethylpyrimidin-4-yl)-4,6-dimethyl-5-oxo-5,6,7,8-tetrahydroquinolin-2-yl)-2-(4-(ethylsulfonyl)phenyl)acetamide], the inhibition at 1 µM on RORγ LBD (1 μM compound) is 77%. On RORγ LBD, this compound gave an inhibition at 10 µM of 100% and a concentration for half-maximal inhibition (IC50) of 150 to 300 nM. The IC50 in experiment [1] was in the range of 100 to 500 nM.

For the compound `Cc1cc(NC(=O)Cc2ccc(S(C)(=O)=O)cc2)nc2c1C(=O)C(C)(c1ncccc1O)CC2` (stereo not shown) [Compound 89, N-(6-(3-hydroxypyridin-2-yl)-4,6-dimethyl-5-oxo-5,6,7,8-tetrahydroquinolin-2-yl)-2-(4-(methylsulfonyl)phenyl)acetamide], the inhibition at 1 µM at RORγ LBD (1 μM compound) stood at 53%. On RORγ LBD, this compound came in with an inhibition at 10 µM of 79% and an IC50 greater than 300 nM. Moreover, in experiment [1], the IC50 is greater than 500 nM.

On RORγ LBD (1 μM compound), `COc1ccc(C2(C)CCc3nc(NC(=O)Cc4ccc(S(C)(=O)=O)cc4)cc(C)c3C2=O)nn1` (stereo not shown) [Compound 35, N-(6-(6-methoxypyridazin-3-yl)-4,6-dimethyl-5-oxo-5,6,7,8-tetrahydroquinolin-2-yl)-2-(4-(methylsulfonyl)phenyl)acetamide] registered an inhibition at 1 µM of 80%. For the same compound, at RORγ LBD, the inhibition at 10 µM is 98%. Moreover, the figures for the IC50 (on RORγ LBD; in experiment [1]) were 150 to 300 nM and 100 to 500 nM, respectively.

On to `CCS(=O)(=O)c1ccc(CC(=O)Nc2ccc3c(n2)CCC(C)(c2ncc(OC)cn2)C3=O)cc1` (stereo not shown) [Compound 56, 2-(4-(ethylsulfonyl)phenyl)-N-(6-(5-methoxypyrimidin-2-yl)-6-methyl-5-oxo-5,6,7,8-tetrahydroquinolin-2-yl)acetamide], for which the inhibition at 1 µM at RORγ LBD (1 μM compound) was determined as 96%. Also, at 10 µM the inhibition on RORγ LBD was 94%. Moreover, the IC50 at RORγ LBD is less than 150 nM; in experiment [1] it was less than 100 nM.

Compound `CCS(=O)(=O)c1ccc(CC(=O)Nc2ccc3c(n2)CCC(C)(c2ccc(C(C)C)nn2)C3=O)cc1` (stereo not shown) [Compound 62, 2-(4-(ethylsulfonyl)phenyl)-N-(6-(6-isopropylpyridazin-3-yl)-6-methyl-5-oxo-5,6,7,8-tetrahydroquinolin-2-yl)acetamide] yielded an inhibition at 1 µM on RORγ LBD (1 μM compound) of 96%. At RORγ LBD, at 10 µM the inhibition was 91%. For the same compound, the results for the IC50 (on RORγ LBD; in experiment [1]) were less than 150 nM and greater than 500 nM, respectively.

The compound `CCS(=O)(=O)c1ccc(CC(=O)Nc2cc(C)c3c(n2)CCC(C)(c2ccc(OC)nc2)C3=O)cc1` (stereo not shown) [Compound 17, 2-(4-(ethylsulfonyl)phenyl)-N-(6-(6-methoxypyridin-3-yl)-4,6-dimethyl-5-oxo-5,6,7,8-tetrahydroquinolin-2-yl)acetamide] displayed an inhibition at 1 µM on RORγ LBD (1 μM compound) of 92%. 10 µM produced 96% inhibition at RORγ LBD. Also, in experiment [1], the IC50 is less than 100 nM.

With `CCS(=O)(=O)c1ccc(CC(=O)Nc2cc(C)c3c(n2)CCC(C)(c2cc(C)nc(C)n2)C3=O)cc1` (single isomer, unassigned) [compound 107, N-(6-(2,6-dimethylpyrimidin-4-yl)-4,6-dimethyl-5-oxo-5,6,7,8-tetrahydroquinolin-2-yl)-2-(4-(ethylsulfonyl)phenyl)acetamide], at RORγ LBD (1 μM compound), the inhibition at 1 µM is 91%. The “RORγ ligand binding assay: % inhibition @ 10 μM” value at RORγ LBD was 90%. Moreover, the IC50 at RORγ LBD was less than 150 nM; in experiment [1], 100 to 500 nM.

Turning to `CCS(=O)(=O)c1ccc(CC(=O)Nc2ccc3c(n2)CCC(C)(c2ccc(C)s2)C3=O)cc1` (stereo not shown) [Compound 45, 2-(4-(ethylsulfonyl)phenyl)-N-(6-methyl-6-(5-methylthiophen-2-yl)-5-oxo-5,6,7,8-tetrahydroquinolin-2-yl)acetamide], the inhibition at 1 µM on RORγ LBD (1 μM compound) stood at 66%. Besides, the inhibition at 10 µM at RORγ LBD is 73%. The 50% inhibitory concentration (IC50) in experiment [1] was less than 100 nM.

Take `CCS(=O)(=O)c1ccc(CC(=O)Nc2cc(C)c3c(n2)CCC(C)(c2ccc(O)cn2)C3=O)cc1` (stereo not shown) [Compound 88, 2-(4-(ethylsulfonyl)phenyl)-N-(6-(5-hydroxypyridin-2-yl)-4,6-dimethyl-5-oxo-5,6,7,8-tetrahydroquinolin-2-yl)acetamide]: on RORγ LBD (1 μM compound), the inhibition at 1 µM worked out at 86%. On RORγ LBD, this compound registered an inhibition at 10 µM of 90% and an IC50 of 150 to 300 nM. In addition, in experiment [1], the IC50 is greater than 500 nM.

Consider `CCS(=O)(=O)c1ccc(CC(=O)Nc2ccc3c(n2)CCC(C)(c2ccc(OC)nc2)C3=O)cc1` (stereo not shown) [Compound 2, 2-(4-(ethylsulfonyl)phenyl)-N-(6-(6-methoxypyridin-3-yl)-6-methyl-5-oxo-5,6,7,8-tetrahydroquinolin-2-yl)acetamide], for which, at RORγ LBD (1 μM compound), the inhibition at 1 µM stood at 84%. In addition, at RORγ LBD, the inhibition at 10 µM is 89% and the IC50 was less than 150 nM. In addition, the IC50 in experiment [1] lay in the range of 100 to 500 nM.

On RORγ LBD (1 μM compound), `CCC1(c2nccn3ccnc23)CCc2nc(NC(=O)Cc3ccc(S(=O)(=O)CC)cc3)ccc2C1=O` (stereo not shown) [Compound 14, N-(6-ethyl-6-(imidazo[1,2-a]pyrazin-8-yl)-5-oxo-5,6,7,8-tetrahydroquinolin-2-yl)-2-(4-(ethylsulfonyl)phenyl)acetamide] yielded an inhibition at 1 µM of 0%. The same compound registered an inhibition at 10 µM on RORγ LBD of 26%. In addition, in experiment [1], the IC50 is greater than 500 nM.

`CCS(=O)(=O)c1ccc(CC(=O)Nc2cc(C)c3c(n2)CCC(C)(c2ccc(OC)nn2)C3=O)cc1` (single isomer, unassigned) [compound 110, 2-(4-(ethylsulfonyl)phenyl)-N-(6-(6-methoxypyridazin-3-yl)-4,6-dimethyl-5-oxo-5,6,7,8-tetrahydroquinolin-2-yl)acetamide]: the “RORγ ligand binding assay: % inhibition @1 μM” value on RORγ LBD (1 μM compound) was 100%. Also, the “RORγ ligand binding assay: % inhibition @ 10 μM” value at RORγ LBD is recorded as 81%. In addition, the IC50 in experiment [1] is less than 100 nM.

With `CCS(=O)(=O)c1ccc(CC(=O)Nc2ccc3c(n2)CCC(C)(c2nccn4c(C)cnc24)C3=O)cc1` (stereo not shown) [Compound 49, 2-(4-(ethylsulfonyl)phenyl)-N-(6-methyl-6-(3-methylimidazo[1,2-a]pyrazin-8-yl)-5-oxo-5,6,7,8-tetrahydroquinolin-2-yl)acetamide], the inhibition at 1 µM at RORγ LBD (1 μM compound) is 93%. At RORγ LBD, this compound had an inhibition at 10 µM of 82%. Further, the IC50 was in the range of 150 to 300 nM at RORγ LBD and 100 to 500 nM in experiment [1].
